Laboratory results reported in EP3643303A1, “COMPOUNDS FOR USE IN THE TREATMENT OR PREVENTION OF FIBROTIC DISEASES; PHARMACEUTICAL, COSMETIC COMPOSITIONS AND USES THEREOF” (InnovativeHealth Group SL, priority 2018, dated 2020).

Assays:
[1] = test system: anandamide hydrolysis; conditions: Bisogno et al. 2001; cited from earlier work
[2] = test system: normal human dermal fibroblasts (NHDFs); assay: Collagen secretion (Sircol Soluble Collagen Assay) in TGFβ-stimulated NHDFs; type: cell-based; conditions: 1 h pre-treatment, TGFβ 24 h; Figure 4
Experimental: Next, NHDFs were used to correlate the effect of both isomers of CBD on Col1A2 transcriptional activity with collagen secretion. NHDFs were seeded in 24 well plates (5x10^4 cells/well), pre-treated with either (-)CBD or (+)CBD for 1 h and stimulated with TGFβ for the following 24 h. Collagen secretion was studied by collecting culture medium and measuring soluble collagen using the Sircol Soluble Collagen Assay (Biocolor, County Antrim, UK) following manufacturer's instructions.

[3] = target: T1, human CB1 (Homo sapiens, UniProt P21554); assay: CB1 antagonism assay (CRE-Luc reporter) in HEK-293T-CB1 cells stimulated with WIN-55,212-2; type: cell-based; conditions: 15 min preincubation, then WIN-55,212-2 for 6 h; CRE-Luc luciferase; Figure 1
T1 construct: HEK-293T-CB1 (stably transfected with CB1 cDNA); expressed in transfected cells; host or cells: HEK-293T
Experimental: To investigate the biological activities of the CBD enantiomers on CB1 and TRPV1 receptors were performed functional assays in both HEK-293T-CB1 and HEK-293T-TRPV1 cells, which overexpress human CB1 and TRPV-1 receptors respectively. HEK-293T-CB1 (stably transfected with CB1 cDNA) were maintained in supplemented DMEM medium containing 10% FBS and 1% antibiotics penicillin/streptomycin (DMEM complete medium) at 37°C in a humidified atmosphere of 5% CO2. The cells were incubated in 24-well plates (1x10^5 cell/ml) and transiently transfected with 0,1 µg/ml of the plasmid CRE-Luc that contains six consensus cAMP responsive elements (CRE) linked to firefly luciferase. Transient transfections were performed with Rotifect (Carl Roth GmbH, Karlsruhe, Germany) according to the manufacturer's instructions and harvested 24 h after transfection. For CB1 antagonistic activity the transfected cells were incubated with increasing concentrations of the CBD enantiomers for 15 min and then stimulated with WIN-55, 212-2 (CB1 agonist), during 6 h and then luciferase activity measured in the cell lysates. […]

[4] = target: T2, TRPV-1 (Homo sapiens, UniProt Q8NER1); conditions: Bisogno et al. 2001; cited from earlier work
Target sequence in this assay (Q8NER1 whole entry, species assumed): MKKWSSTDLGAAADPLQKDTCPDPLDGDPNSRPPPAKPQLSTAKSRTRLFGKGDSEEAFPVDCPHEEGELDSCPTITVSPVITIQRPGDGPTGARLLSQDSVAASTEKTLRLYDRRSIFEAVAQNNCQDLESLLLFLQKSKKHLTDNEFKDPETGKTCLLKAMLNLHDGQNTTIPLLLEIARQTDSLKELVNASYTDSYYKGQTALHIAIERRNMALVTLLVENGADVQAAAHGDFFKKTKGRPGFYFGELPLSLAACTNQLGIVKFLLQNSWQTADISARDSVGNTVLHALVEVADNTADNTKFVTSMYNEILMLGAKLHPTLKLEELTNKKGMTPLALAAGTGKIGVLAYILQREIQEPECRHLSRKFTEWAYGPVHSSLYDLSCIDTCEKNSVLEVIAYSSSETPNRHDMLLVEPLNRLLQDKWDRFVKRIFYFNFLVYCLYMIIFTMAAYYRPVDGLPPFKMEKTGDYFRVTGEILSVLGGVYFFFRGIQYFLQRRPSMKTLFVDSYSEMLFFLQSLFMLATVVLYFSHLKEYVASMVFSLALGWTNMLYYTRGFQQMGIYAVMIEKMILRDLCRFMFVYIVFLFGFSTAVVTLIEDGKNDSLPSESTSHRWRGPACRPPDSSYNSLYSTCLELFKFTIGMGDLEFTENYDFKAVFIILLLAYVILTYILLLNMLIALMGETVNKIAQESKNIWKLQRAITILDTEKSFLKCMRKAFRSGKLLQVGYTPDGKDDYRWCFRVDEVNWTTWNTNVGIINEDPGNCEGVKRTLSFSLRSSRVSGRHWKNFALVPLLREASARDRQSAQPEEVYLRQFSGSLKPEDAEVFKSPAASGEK

[5] = target: T2, TRPV-1; assay: Capsaicin-induced cytotoxicity (YOYO-1, Incucyte) in HEK-293T-TRPV1 cells; type: cell-based; parameters: expressed in transfected cells; host or cells: HEK-293T; conditions: Capsaicin 1 µM for 3 h, Figure 2B
Experimental: Capsaicin-induced cytotoxicity as a model of TRPV-1 agonistic assay was also investigated in HEK-293T-TRPV1 cells. The cells (2x10^4/well) were cultured in triplicate in 96-well microtiter plates in 200 µL of complete medium and incubated with (-)CBD or (+)CBD and then stimulated with the agonist Capsaicin (1 µM) for 3 h. Capzasepine (10 µM) was used as the positive control of TRPV-1 antagonism. Then, TRPV-1 induced cytotoxicity was measured by fluorescence using the die YOYO-1 (Life Technologies). YOYO-1 was diluted in cell culture medium and added to a final concentration of 0.1 µM to both experimental and control wells. YOYO-1 is a cell impermeant cyanine dimer nucleic acid stain that can only enter cells with a compromised plasma membrane and fluorescently stain the nuclear DNA. By adding YOYO-1 to damaged cells an increase in YOYO-1 fluorescence is detected. Treated cells are placed in an Incucyte FLR imaging system, and the YOYO-1 fluorescence is measured after 3 h. […] Object counting analysis is performed using the Incucyte FLR software to calculate the total number of YOYO-1 fluorescence positive cells and total DNA containing objects (end point). The cytotoxicity index is calculated by dividing the number of YOYO-1 fluorescence positive objects by the total number of DNA containing objects for each treatment group.
Target sequence in this assay (Q8NER1 whole entry): as the sequence (Q8NER1 whole entry, species assumed) above

[6] = test system: α-SMA; assay: α-SMA expression by Western blot in TGFβ-treated NIH-3T3 cells (myofibroblast differentiation); type: cell-based; conditions: 1 h preincubation, TGFβ 10 ng/ml 24 h; Figure 5
Experimental: It is well known that TGFβ drives the conversion of fibroblasts into myofibroblasts, and the accumulation of myofibroblasts cells in fibrotic skin is a hallmark of SSc. Myofibroblasts are characterized by the novo synthesis of α-smooth muscle actin (a-SMA) fibers. To investigate α-SMA expression NIH-3T3 cells were preincubated with either (+)CBD or (-)CBD for 1 h and then treated with TFGβ (10 ng/ml) for 24 h. Cells were washed with PBS and proteins extracted in 50 µl of lysis buffer (50 mM Tris-HCl pH 7.5, 150 mM NaCl, 10% glycerol and 1% NP-40) supplemented with 10mM NaF, 1 mM Na3VO4, 10 µg/ml leupeptine, 1 µg/ml pepstatin and aprotinin, and 1 µl/ml PMSF saturated. Protein concentration was determined by the Bradford assay (Bio-Rad, CA, USA) and 30 µg of proteins were boiled at 95 °C in Laemmli buffer and electrophoresed in 10% SDS/PAGE gels. Separated proteins were transferred to PVDF membranes (20V for 30 min) and blocked in TBS solution containing 0.1% Tween 20 and 5% non-fat dry milk for 1 hour at room temperature. Immunodetection of specific proteins was carried out by incubation with primary antibody against α-SMA (1:500; sc-32251, Santa Cruz). After washing membranes, horseradish peroxidase-conjugated secondary antibody was added and detected by chemiluminescence system (GE Healthcare Europe GmbH). […]

T1 sequence (P21554 whole entry): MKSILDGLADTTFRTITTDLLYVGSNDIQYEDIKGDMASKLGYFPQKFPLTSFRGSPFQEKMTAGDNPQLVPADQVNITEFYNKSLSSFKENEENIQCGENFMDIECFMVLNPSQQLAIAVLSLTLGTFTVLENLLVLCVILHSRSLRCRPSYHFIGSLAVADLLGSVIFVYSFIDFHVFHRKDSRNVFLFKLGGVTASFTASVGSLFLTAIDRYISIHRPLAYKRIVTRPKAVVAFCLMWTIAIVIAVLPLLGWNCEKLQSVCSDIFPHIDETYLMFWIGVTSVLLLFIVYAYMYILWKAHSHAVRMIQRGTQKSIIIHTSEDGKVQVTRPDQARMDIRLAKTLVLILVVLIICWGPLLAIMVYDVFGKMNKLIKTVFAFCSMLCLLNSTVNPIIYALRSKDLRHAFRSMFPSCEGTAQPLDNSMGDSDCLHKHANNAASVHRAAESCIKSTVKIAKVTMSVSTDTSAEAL

| SMILES | anandamide hydrolysis [1] | TGFβ-induced collagen release and deposition [2] | CB1 antagonistic activity [3] | activity of the TRPV-1 [4] | capsaicin-induced cytotoxicity (cytotoxicity index) [5] | expression α-SMA protein induced by TGFβ [6] |
| --- | --- | --- | --- | --- | --- | --- |
| C=C(C)[C@H]1CCC(C)=C[C@@H]1c1c(O)cc(CCCCC)cc1O [(+)CBD, (+)Cannabidiol] | inhibited | significantly inhibited | clear CB1 antagonistic activity | modulated | prevent capsaicin-induced calcium mobilization | attenuated |
| C=C(C)[C@@H]1CCC(C)=C[C@H]1c1c(O)cc(CCCCC)cc1O [(-)CBD, 2-[(1R,6R)-3-methyl-6-prop-1-en-2-ylcyclohex-2-en-1-yl]-5-pentylbenzene-1,3-diol] | inhibited | significantly inhibited | clear CB1 antagonistic activity | modulated | prevent capsaicin-induced calcium mobilization | attenuated |
